Experimental data reported in the supplement of paper PMC10307832.

Legend:
Assay in all cases: relative viability (nuclei count vs DMSO), 5 days (fraction); higher = more cells survive
NCI-H522 = tested on: NCI-H522
Summary of the method: (§1)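 Five library-drug doses in √10 steps were combined with a fixed anchor-drug dose, or a single drug was given alone, by pin tool to lung cancer cell lines in 1536-well plates the day after seeding. Nuclei were stained and counted after 5 days. Relative viability is the nuclei count in treated wells over that in vehicle wells, taken as the median of duplicate plates.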

ChaGo-K-1 = tested on: ChaGo-K-1
Summary of the method: as §1

SK-MES-1 = tested on: SK-MES-1
Summary of the method: as §1

Calu-6 = tested on: Calu-6
Summary of the method: as §1

A549 = tested on: A549
Summary of the method: as §1

NCI-H1703 = tested on: NCI-H1703
Summary of the method: as §1

EBC-1 = tested on: EBC-1
Summary of the method: as §1

NCI-H1651 = tested on: NCI-H1651
Summary of the method: as §1

NCI-H1648 = tested on: NCI-H1648
Summary of the method: as §1

NCI-H1299 = tested on: NCI-H1299
Summary of the method: as §1

IA-LM = tested on: IA-LM
Summary of the method: as §1

O=C(O)c1ccc(-c2c[nH]c3ncc(-c4ccccc4)cc23)cc1C1CCCC1 + O=C(c1cc(Cc2n[nH]c(=O)c3ccccc23)ccc1F)N1CCN(C(=O)C2CC2)CC1 [Olaparib] (partner 8 µM)
relative viability (NCI-H522; first compound 0.04 µM): 0.816 | relative viability (NCI-H522; first compound 0.1265 µM): 0.673 | relative viability (NCI-H522; first compound 0.4 µM): 0.596 | relative viability (NCI-H522; first compound 1.265 µM): 0.755 | relative viability (ChaGo-K-1; first compound 0.04 µM): 0.418 | relative viability (ChaGo-K-1; first compound 0.1265 µM): 0.429 | relative viability (ChaGo-K-1; first compound 0.4 µM): 0.401 | relative viability (ChaGo-K-1; first compound 1.265 µM): 0.314 | relative viability (SK-MES-1; first compound 0.04 µM): 0.716 | relative viability (SK-MES-1; first compound 0.1265 µM): 0.687 | relative viability (SK-MES-1; first compound 0.4 µM): 0.58 | relative viability (SK-MES-1; first compound 1.265 µM): 0.286 | relative viability (Calu-6; first compound 0.04 µM): 0.521 | relative viability (Calu-6; first compound 0.1265 µM): 0.56 | relative viability (Calu-6; first compound 0.4 µM): 0.488 | relative viability (Calu-6; first compound 1.265 µM): 0.395 | relative viability (A549; first compound 0.04 µM): 0.224 | relative viability (A549; first compound 0.1265 µM): 0.674 | relative viability (A549; first compound 0.4 µM): 0.345 | relative viability (A549; first compound 1.265 µM): 0.307 | relative viability (NCI-H1703; first compound 0.04 µM): 0.57 | relative viability (NCI-H1703; first compound 0.1265 µM): 0.468 | relative viability (NCI-H1703; first compound 0.4 µM): 0.382 | relative viability (NCI-H1703; first compound 1.265 µM): 0.49 | relative viability (EBC-1; first compound 0.04 µM): 0.692 | relative viability (EBC-1; first compound 0.1265 µM): 0.626 | relative viability (EBC-1; first compound 0.4 µM): 0.618 | relative viability (EBC-1; first compound 1.265 µM): 0.406 | relative viability (NCI-H1651; first compound 0.04 µM): 0.17 | relative viability (NCI-H1651; first compound 0.1265 µM): 0.187 | relative viability (NCI-H1651; first compound 0.4 µM): 0.176 | relative viability (NCI-H1651; first compound 1.265 µM): 0.192 | relative viability (NCI-H1648; first compound 0.04 µM): 0.676 | relative viability (NCI-H1648; first compound 0.1265 µM): 1.15 | relative viability (NCI-H1648; first compound 0.4 µM): 0.763 | relative viability (NCI-H1299; first compound 0.04 µM): 0.964 | relative viability (NCI-H1299; first compound 0.1265 µM): 1 | relative viability (NCI-H1299; first compound 0.4 µM): 0.893 | relative viability (NCI-H1299; first compound 1.265 µM): 0.821 | relative viability (IA-LM; first compound 0.04 µM): 0.836 | relative viability (IA-LM; first compound 0.1265 µM): 0.758 | relative viability (IA-LM; first compound 0.4 µM): 0.846 | relative viability (IA-LM; first compound 1.265 µM): 0.719
